Assay results from patent US20080188445A1, “TETRACYCLINE COMPOSITIONS FOR TOPICAL ADMINISTRATION” (WARNER CHILCOTT COMPANY INC., priority 2007, published 2008).
Counter-ions that a name gives are not always drawn.

Test: Permeation through a silicone membrane, pH effect (side-by-side permeation apparatus)
Assay type: in vitro ADME
Settings: 32° C.
Text: A further study investigated the permeation of minocycline from a liquid formulation comprising 0.47% (w/w) minocycline HCl dissolved in water through a silicone membrane as function of the pH. The diffusion of tetracycline from commercially available Topicycline® (0.2% w/w tetracycline HCl) across a silicone membrane was also compared under equivalent conditions. The permeation apparatus used (FIG. 1) was as follows. The apparatus consisted of two water-jacketed compartments 1 and 2, separated by a standard silicone membrane 3 (SMEM001 002, Esco Rubber, Barloworld Scientific Ltd, UK), which were clamped together. Each water-jacketed compartment 1 and 2 had respective water inlets 4 and water outlets 5 on the respective outer compartments 6, said outer compartments containing water. Inner compartment 7 for containing sample and inner compartment 8 for containing dissolution medium are also shown. The liquid formulation (or the Topicycline®) was immediately introduced into the inner compartment 7 via port 10. A pre-heated 0.9% saline solution (32° C.) was introduced via the sampling port 9 in the inner compartment 8.

- Amount of Tetracycline or Minocycline (μg) detected after 6 hours (pH 5.0, receiver 0.9% saline): 0.17 µg
- Amount of Tetracycline or Minocycline (μg) detected after 6 hours (pH 6.2, receiver 0.9% saline): 0.55 µg
- Amount of Tetracycline or Minocycline (μg) detected after 6 hours (pH 7.0, receiver 0.9% saline): 0.31 µg
Structure (SMILES): CN(C)c1ccc(O)c2c1C[C@H]1C[C@H]3[C@H](N(C)C)C(O)=C(C(N)=O)C(=O)[C@@]3(O)C(O)=C1C2=O [Minocycline HCl]
